From ChEMBL document CHEMBL5137093, “Improving Drug Delivery While Tailoring Prodrug Activation to Modulate Cmax and Cmin by Optimization of (Carbonyl)oxyalkyl Linker-Based Prodrugs of Atazanavir” (J Med Chem, 2022)
Converted amounts (≈) assume the structure as drawn.

How the values were obtained:
[1] = Cmax in Sprague-Dawley rat at 30 ml/kg,po measured upto 24 hrs by UPLC-MS/MS analysis; format: ADME; set-up: time < 24 hrs, dose 30 ml/kg, route po; settings: in vivo
[2] = Relative AUC ratio of Atazanavir in Sprague-Dawley rat at 30 ml/kg,po measured upto 24 hrs by UPLC-MS/MS analysis; format: ADME; settings: in vivo
[3] = Metabolic stability in monkey intestine microsomes assessed as half life; format: ADME, Macaca mulatta, Microsome; settings: rhesus monkey
[4] = Fold ratio of total AUC of Atazanavir in Sprague-Dawley rat at 1 ml/kg,iv measured upto 24 hrs by UPLC-MS/MS analysis; format: ADME; settings: in vivo
[5] = Tmax in Sprague-Dawley rat at 3 ml/kg,po measured upto 24 hrs by UPLC-MS/MS analysis; format: ADME; settings: in vivo
[6] = Half life in rat hepatocyte measured upto 120 mins in presence of PMSF and ABT by UPLC-MS/MS analysis; format: ADME, cell-based; settings: hepatocytes, with PMSF and ABT
[7] = Clearance in Sprague-Dawley rat at 1 ml/kg,iv measured upto 24 hrs by UPLC-MS/MS analysis; format: ADME; settings: in vivo
[8] = Half life in Sprague-Dawley rat at 1 ml/kg,iv measured upto 24 hrs by UPLC-MS/MS analysis; format: ADME; settings: in vivo
[9] = Fold ratio of total AUC of Atazanavir in Sprague-Dawley rat at 30 ml/kg,po measured upto 24 hrs by UPLC-MS/MS analysis; format: ADME; settings: in vivo
[10] = Ratio of Cmax/Cmin of Atazanavir in Sprague-Dawley rat at 1 ml/kg,iv measured after 24 hrs by UPLC-MS/MS analysis; format: ADME; settings: in vivo
[11] = Metabolic stability in dog liver microsomes assessed as half life in presence of NADPH; format: ADME, Canis lupus familiaris, Microsome
[12] = Metabolic stability in monkey liver microsomes assessed as half life; format: ADME, Macaca mulatta, Microsome; settings: rhesus monkey
[13] = Relative AUC ratio of Atazanavir in Sprague-Dawley rat at 3 ml/kg,po measured upto 24 hrs by UPLC-MS/MS analysis; format: ADME; settings: in vivo
[14] = Relative Cmax ratio of Atazanavir in Sprague-Dawley rat at 1 ml/kg,iv measured upto 24 hrs by UPLC-MS/MS analysis; format: ADME; settings: in vivo
[15] = AUClast in Sprague-Dawley rat at 30 ml/kg,po measured upto 24 hrs by UPLC-MS/MS analysis; format: ADME; set-up: time < 24 hrs, dose 30 ml/kg, route po; settings: in vivo
[16] = Metabolic stability in dog liver microsomes assessed as half life; format: ADME, Canis lupus familiaris, Microsome
[17] = Metabolic stability in rat intestine microsomes assessed as half life; format: ADME, Microsome
[18] = Half life in rat hepatocyte measured upto 120 mins by UPLC-MS/MS analysis; format: ADME, cell-based; settings: hepatocytes
[19] = Aqueous solubility of compound at pH 1 by UPLC analysis; format: physicochemical; settings: buffer
[20] = Tmax in Sprague-Dawley rat at 30 ml/kg,po measured upto 24 hrs by UPLC-MS/MS analysis; format: ADME; settings: in vivo
[21] = Ratio of Cmax/Cmin of Atazanavir in Sprague-Dawley rat at 3 ml/kg,po measured after 24 hrs by UPLC-MS/MS analysis; format: ADME; settings: in vivo
[22] = Metabolic stability in rat intestine microsomes assessed as half life in presence of NADPH; format: ADME, Microsome
[23] = Metabolic stability in dog intestine microsomes assessed as half life in presence of NADPH; format: ADME, Canis lupus familiaris, Microsome
[24] = Metabolic stability in human liver microsomes assessed as half life; format: ADME, Microsome
[25] = Metabolic stability in rat liver microsomes assessed as half life; format: ADME, Microsome
[26] = Half life in rat hepatocyte measured upto 120 mins in presence of PMSF by UPLC-MS/MS analysis; format: ADME, cell-based; settings: hepatocytes, with PMSF
[27] = Aqueous solubility of compound at pH 4 by UPLC analysis; format: physicochemical; settings: buffer
[28] = AUClast in Sprague-Dawley rat at 1 ml/kg,iv measured upto 24 hrs by UPLC-MS/MS analysis; format: ADME; set-up: dose 1 ml/kg, time < 24 hrs, route iv; settings: in vivo
[29] = Relative Cmax ratio of Atazanavir in Sprague-Dawley rat at 3 ml/kg,po measured upto 24 hrs by UPLC-MS/MS analysis; format: ADME; settings: in vivo
[30] = Cmax in Sprague-Dawley rat at 1 ml/kg,iv measured upto 24 hrs by UPLC-MS/MS analysis; format: ADME; set-up: dose 1 ml/kg, time < 24 hrs, route iv; settings: in vivo
[31] = Ratio of Cmax/Cmin of Atazanavir in Sprague-Dawley rat at 30 ml/kg,po measured after 24 hrs by UPLC-MS/MS analysis; format: ADME; settings: in vivo
[32] = Aqueous stability of the compound in phosphate buffer at pH 6.5 assessed as compound half life measured after 24 hrs by UPLC analysis; format: physicochemical; settings: buffer, pH 6.5, 24 h, 24 h
[33] = Relative AUC ratio of Atazanavir in Sprague-Dawley rat at 1 ml/kg,iv measured upto 24 hrs by UPLC-MS/MS analysis; format: ADME; settings: in vivo
[34] = Metabolic stability in dog intestine microsomes assessed as half life; format: ADME, Canis lupus familiaris, Microsome
[35] = Metabolic stability in human intestine microsomes assessed as half life in presence of NADPH; format: ADME, Microsome
[36] = Metabolic stability in monkey liver microsomes assessed as half life in presence of NADPH; format: ADME, Macaca mulatta, Microsome; settings: rhesus monkey
[37] = Metabolic stability in human liver microsomes assessed as half life in presence of NADPH; format: ADME, Microsome
[38] = Metabolic stability in rat liver microsomes assessed as half life in presence of NADPH; format: ADME, Microsome
[39] = Cmin in Sprague-Dawley rat at 1 ml/kg,iv measured after 24 hrs by UPLC-MS/MS analysis; format: ADME; settings: in vivo, read-out: Cmin
[40] = Ratio of AUC of Atazanavir in Sprague-Dawley rat at 30 ml/kg,po measured upto 24 hrs by UPLC-MS/MS analysis; format: ADME; settings: in vivo
[41] = Fold ratio of total AUC of Atazanavir in Sprague-Dawley rat at 3 ml/kg,po measured upto 24 hrs by UPLC-MS/MS analysis; format: ADME; settings: in vivo
[42] = Half life in rat hepatocyte measured upto 120 mins in presence of ABT by UPLC-MS/MS analysis; format: ADME, cell-based; settings: hepatocytes, with ABT
[43] = AUClast in Sprague-Dawley rat at 3 ml/kg,po measured upto 24 hrs by UPLC-MS/MS analysis; format: ADME; set-up: time < 24 hrs, dose 3 ml/kg, route po; settings: in vivo
[44] = Ratio of AUC of Atazanavir in Sprague-Dawley rat at 3 ml/kg,po measured upto 24 hrs by UPLC-MS/MS analysis; format: ADME; settings: in vivo
[45] = Ratio of AUC of Atazanavir in Sprague-Dawley rat at 1 ml/kg,iv measured upto 24 hrs by UPLC-MS/MS analysis; format: ADME; settings: in vivo
[46] = Metabolic stability in human intestine microsomes assessed as half life; format: ADME, Microsome
[47] = Metabolic stability in monkey intestine microsomes assessed as half life in presence of NADPH; format: ADME, Macaca mulatta, Microsome; settings: rhesus monkey
[48] = Relative Cmax ratio of Atazanavir in Sprague-Dawley rat at 30 ml/kg,po measured upto 24 hrs by UPLC-MS/MS analysis; format: ADME; settings: in vivo
[49] = Cmax in Sprague-Dawley rat at 3 ml/kg,po measured upto 24 hrs by UPLC-MS/MS analysis; format: ADME; set-up: dose 3 ml/kg, time < 24 hrs, route po; settings: in vivo
[50] = Volume of distribution at steady state in Sprague-Dawley rat at 1 ml/kg,iv measured upto 24 hrs by UPLC-MS/MS analysis; format: ADME; settings: in vivo, read-out: Vdss
[51] = Aqueous stability of the compound in acetate buffer at pH 4 assessed as compound half life measured after 24 hrs by UPLC analysis; format: physicochemical; settings: buffer, pH 4, 24 h, 24 h

COC(=O)N[C@H](C(=O)N[C@@H](Cc1ccccc1)[C@H](CN(Cc1ccc(-c2ccccn2)cc1)NC(=O)[C@@H](NC(=O)OC)C(C)(C)C)OC(=O)OC(OC(=O)[C@@H](N)C(C)C)C(C)C)C(C)(C)C (stereo in doubt; 3s)
Cmax [1]: 189 nM | Ratio [2]: 1.32 | half-life [3]: > 2 h | Ratio [4]: 7.3 | Tmax ([5]; Sprague-Dawley, read-out: Tmax): 0.6 h | half-life [6]: 1.43 h | clearance [7]: 102 mL/min/kg | half-life [8]: 6 h | Ratio [9]: 1.35 | Ratio [10]: 1040.4 | half-life [11]: 9 min | half-life [12]: 2.45 h | Ratio [13]: 6.7 | Ratio [14]: 2.07 | AUC(0-t) at 24 h [15]: 0.601 µM·h | half-life [16]: 4.82 h | half-life [17]: > 2 h | half-life [18]: 0.35 h | solubility [19]: > 2100 µg/mL | Tmax [20]: 0.8 h | Ratio [21]: 204.8 | half-life [22]: 1.78 h | half-life [23]: 0.883 h | half-life [24]: 2.82 h | half-life [25]: 3.73 h | half-life [26]: 1.43 h | solubility [27]: > 2300 µg/mL | AUC(0-t) at 24 h [28]: 0.17 µM·h | Ratio [29]: 3.8 | Cmax [30]: 151 nM | Ratio [31]: 329.4 | t1/2 [32]: 4.9 h | Ratio [33]: 7 | half-life [34]: > 2 h | half-life [35]: 0.967 h | half-life [36]: 9 min | half-life [37]: 1.18 h | half-life [38]: 0.833 h | concentration at 24 h [39]: 2 nM | Ratio [40]: 0.02 | Ratio [41]: 6.8 | half-life [42]: 0.433 h | AUC(0-t) at 24 h ([43]; Sprague-Dawley, 3 ml/kg): 0.044 µM·h | Ratio [44]: 0.02 | Ratio [45]: 0.04 | half-life [46]: 1.83 h | half-life [47]: 0.4 h | Ratio [48]: 2.1 | Cmax ([49]; Sprague-Dawley, 3 ml/kg): 19 nM | Vd [50]: 35 L/kg

COC(=O)N[C@H](C(=O)N[C@@H](Cc1ccccc1)[C@H](CN(Cc1ccc(-c2ccccn2)cc1)NC(=O)[C@@H](NC(=O)OC)C(C)(C)C)OC(=O)OC(OC(=O)[C@H](C(C)C)N(C)C)C(C)C)C(C)(C)C (stereo in doubt; 5h)
Cmax [1]: 3580 nM | Ratio [2]: 0.29 | Tmax ([5]; po, 24 h): 0.5 h | Ratio [9]: 3.38 | Ratio [13]: 11.8 | AUC(0-t) at 24 h [15]: 64.6 µM·h | solubility [19]: > 1850 µg/mL | Tmax [20]: 3 h | Ratio [21]: 22.7 | solubility [27]: 160 µg/mL (≈ 169 µM) | Ratio [29]: 2.7 | Ratio [31]: 10.8 | t1/2 [32]: 334.3 h | Ratio [40]: 10.81 | Ratio [41]: 42.1 | AUClast ([43]; 24 h): 11.628 µM·h | Ratio [44]: 2.57 | Ratio [48]: 0.14 | Cmax ([49]; 24 h): 1880 nM | t1/2 [51]: 376.3 h
